The values below come from ChEMBL document CHEMBL4261650, “Identification of Cyanamide-Based Janus Kinase 3 (JAK3) Covalent Inhibitors” (J Med Chem, 2018).

Data set [1] is described as follows: GSH reactivity in phosphate buffer assessed as half life at 20 uM after 1 hr in presence of L-glutathione by LC-MS/MS analysis. Type of data set: physicochemical. As to conditions: phosphate buffer with L-glutathione.
Data set [2] is described as follows: Half life in rat whole blood. Format: ADME, tissue-based.
Data set [3] in a line: Half life in human whole blood. Type of data set: ADME, tissue-based.
Data set [4] can be described thus: Apparent permeability across apical to basolateral side in RRCK cells after […] by HPLC analysis. Format: ADME, cell-based, Canis lupus familiaris, MDCKII-LE. As to conditions: dog, MDCK.
Data set [5] is described as follows: Clearance in rat at 1 mg/kg, iv administered as single dose by LC-MS/MS analysis. Type of data set: ADME, organism-based. As to conditions: in vivo.
A short description of data set [6]: Drug level in human liver microsomes treated with 10 uM N-(6-(7H-Pyrrolo[2,3-d]pyrimidin-4-yl)-2,3-dihydro-1H-inden-1-yl)cyanamide (11), (S)-N-(6-(7H-Pyrrolo[2,3-d]pyrimidin-4-yl)-2,3-dihydro-1H-inden-1-yl)cyanamide assessed as compound formation at 10 uM in presence of GSH and NADPH after 15 to 45 mins by LC-MS/MS analysis. Format: ADME, microsome.
The nature of data set [7]: Covalent reactivity with N-alpha-acetyl-L-lysine assessed as half life. Type of data set: physicochemical. The conditions noted are these: N-alpha-acetyl-L-lysine solution.
The nature of data set [8]: AUC in rat at 1 mg/kg, iv administered as single dose by LC-MS/MS analysis. Type of data set: ADME, organism-based. The conditions noted are these: in vivo.
Data set [9] can be described thus: AUC in rat at 3 mg/kg, po administered as single dose by LC-MS/MS analysis. Format: ADME, organism-based. As to conditions: in vivo.
Data set [10] can be described thus: AUC in rat at 1 mg/kg, iv co-administered with CYP450 inhibitor ABT by LC-MS/MS analysis. Type of data set: ADME, organism-based. The conditions noted are these: in vivo.
Data set [11] can be described thus: Half life in rat at 1 mg/kg, iv administered as single dose by LC-MS/MS analysis. As to conditions: in vivo. Format: ADME, organism-based.
A short description of data set [12]: Half life in rat at 1 mg/kg, iv co-administered with CYP450 inhibitor ABT by LC-MS/MS analysis. Format: ADME, organism-based. As to conditions: in vivo.
Data set [13] in a line: Oral bioavailability in rat at 3 mg/kg administered as single dose by LC-MS/MS analysis. Type of data set: ADME, organism-based. As to conditions: in vivo.
A short description of data set [14]: Clearance in rat at 1 mg/kg, iv co-administered with CYP450 inhibitor ABT by LC-MS/MS analysis. Format: ADME, organism-based. As to conditions: in vivo.
The nature of data set [15]: Volume of distribution at steady state in rat at 1 mg/kg, iv administered as single dose by LC-MS/MS analysis. Type of data set: ADME, organism-based. As to conditions: in vivo, read-out: Vdss.
A short description of data set [16]: Volume of distribution at steady state in rat at 1 mg/kg, iv co-administered with CYP450 inhibitor ABT by LC-MS/MS analysis. Format: ADME, organism-based. The conditions noted are these: in vivo, read-out: Vdss.
Data set [17] can be described thus: Drug metabolism in human liver microsomes assessed as 2-((R)-3-(N-((S)-6-(7H-pyrrolo[2,3-d]pyrimidin-4-yl)-2,3-dihydro-1H-inden-1-yl)carbamimidoylthio)-2-aminopropanamido)acetic acid metabolite formation at 10 uM in presence of GSH and NADPH after 15 to 45 mins by LC-MS/MS analysis. Format: ADME, microsome.
A short description of data set [18]: Drug metabolism in human liver microsomes assessed as (S)-1-(6-(7H-pyrrolo[2,3-d]pyrimidin-4-yl)-2,3-dihydro-1H-inden-1-yl)urea metabolite formation at 10 uM in presence of GSH and NADPH after 15 to 45 mins by LC-MS/MS analysis. Type of data set: ADME, microsome.
Data set [19] in a line: Drug metabolism in human liver microsomes assessed as (S)-4-amino-6-(3-cyanamido-2,3-dihydro-1H-inden-5-yl)pyrimidine-5-carboxylic acid metabolite formation at 10 uM in presence of GSH and NADPH after 15 to 45 mins by LC-MS/MS analysis. Type of data set: ADME, microsome.
The nature of data set [20]: Apparent intrinsic clearance in rat liver microsomes. The conditions noted are these: read-out: CLH(app). Type of data set: ADME, microsome.
Data set [21] in a line: Apparent intrinsic clearance in human liver microsomes. The conditions noted are these: read-out: CLH(app). Format: ADME, microsome.

Consider `N#CN[C@@H]1c2cc(-c3ncnc4[nH]ccc34)ccc2C[C@H]1O`, for which, in [1], the half-life at 20 µM was 0.783 h.
Take `N#CN[C@H]1CCc2ccc(-c3ncnc4[nH]cc(-c5ccccc5)c34)cc21`: the half-life at 20 µM in data set [1] amounted to 1.57 h. The half-life in [2] and in data set [3] was 1.02 h each time. Also, in data set [4], the apical-to-basolateral permeability (Papp A→B) at […] worked out at 2 ×10⁻⁶ cm/s.
Regarding `C=CC(=O)N1CCOc2ccc(-c3ncnc4[nH]cc(CCOC)c34)cc21`, the half-life at 20 µM in data set [1] is 0.05 h. For the same compound, the half-life in data set [2] came out at 0.0667 h; in data set [3], 0.0833 h.
As to `C[C@@]1(NC#N)CCc2ccc(-c3ncnc4[nH]ccc34)cc21`, in data set [1], the half-life at 20 µM is over 2 h.
With `N#CN[C@H]1CCOc2ccc(-c3ncnc4[nH]ccc34)cc21`, in data set [1], the half-life at 20 µM worked out at 0.683 h.
Same read-out and setting: the value for `COCCc1c[nH]c2ncnc(-c3ccc4c(c3)C(NC#N)CC4)c12` (stereo unspecified) was 1.23 h.
For the compound `C=CC(=O)Nc1cccc(-c2ncnc3[nH]cc(CCOC)c23)c1`, the half-life at 20 µM in [1] amounted to 0.933 h. Besides, the figures for the half-life in [2] and in data set [3] were 0.483 h and 2.47 h, respectively. Further, in [5], the clearance was found to be 455 mL/min/kg. Further, the Papp A→B at […] in data set [4] is 10 ×10⁻⁶ cm/s.
For the compound `CS(=O)(=O)N[C@@H]1C[C@H](NC#N)c2cc(-c3ncnc4[nH]ccc34)ccc21`, in data set [1], the half-life at 20 µM was determined as 0.383 h. The half-life in data set [2] was determined as 0.517 h; in [3], 3.47 h. Besides, the Papp A→B at […] in data set [4] is under 1 ×10⁻⁶ cm/s.
For `N#CN[C@H]1C[C@@H](NS(=O)(=O)c2cccc(C#N)c2)c2ccc(-c3ncnc4[nH]ccc34)cc21`, in data set [1], the half-life at 20 µM stood at 0.4 h. Also, the Papp A→B at […] in data set [4] amounted to 6 ×10⁻⁶ cm/s.
For `N#CN[C@H]1CCc2ccc(-c3ncnc(N)c3C(=O)O)cc21`, the Drug metabolism entry in data set [6] was “Metabolite_Detected”.
Turning to `N#CN[C@H]1CCc2ccc(-c3ncnc4[nH]cc(-c5cccc(CO)c5)c34)cc21`, the half-life at 20 µM in data set [1] was 1.15 h. Moreover, the results for the half-life in [2] and in data set [3] were 0.983 h and 0.8 h, respectively. The Papp A→B at […] in data set [4] is 4 ×10⁻⁶ cm/s.
Regarding `C[C@@H]1Cc2ccc(-c3ncnc4[nH]ccc34)cc2[C@@H]1NC#N`, the half-life at 20 µM in data set [1] was 1.58 h.
With `COCCc1c[nH]c2ncnc(-c3ccc4c(c3)N(C#N)CC(F)(F)O4)c12`, the half-life at 20 µM in data set [1] was over 2 h. In addition, the Papp A→B at […] in data set [4] was found to be 14 ×10⁻⁶ cm/s.
In the case of `COc1ccc(S(=O)(=O)N[C@@H]2C[C@H](NC#N)c3cc(-c4ncnc5[nH]ccc45)ccc32)cc1`, in [1], the half-life at 20 µM came to 0.583 h.
Still for that read-out and setting: the value for `COCCS(=O)(=O)N[C@@H]1C[C@H](NC#N)c2cc(-c3ncnc4[nH]ccc34)ccc21` was 1.17 h.
On to `C1CCNC1` [PYRROLIDINE], for which the half-life in data set [7] is 7.7 h.
As for `CC1(NC#N)CCc2ccc(-c3ncnc4[nH]ccc34)cc21` (stereo unspecified), the half-life at 20 µM in data set [1] is over 2 h.
With `N#CN[C@H]1CCc2ccc(-c3ncnc4[nH]ccc34)cc21`, the half-life at 20 µM in data set [1] came out at 1.15 h. Also, the half-life is 2.5 h in [2], over 6 h in data set [3], 0.27 h in data set [11] and 0.75 h in data set [12]. Further, the AUC in [8] stood at 466 ng·h/mL; in data set [9], 240 ng·h/mL; in data set [10] it was 488 ng·h/mL. In data set [13], the bioavailability amounted to 16%. Besides, the clearance in data set [5] was determined as 36 mL/min/kg; in data set [14], 34 mL/min/kg. Besides, the Vd in data set [15] came out at 0.35 L/kg; in [16] it was 0.63 L/kg. The Papp A→B at […] in data set [4] stood at 11 ×10⁻⁶ cm/s. The Drug metabolism entry in data set [17], in [18] and in data set [19] was “Metabolite_Detected” in each case. In addition, the results for the microsomal CLint in data set [20] and in data set [21] were 100 µL/min/mg and 50 µL/min/mg, respectively.
For the compound `COCCc1c[nH]c2ncnc(-c3ccc4c(c3)N(C#N)CCO4)c12`, the half-life at 20 µM in [1] was over 3.17 h.
`NC(=O)N[C@H]1CCc2ccc(-c3ncnc4[nH]ccc34)cc21`: the Drug metabolism result in data set [6] is recorded as “Metabolite_Detected”.
`C1CNC1` [AZETIDINE]: in [7], the half-life is 2.59 h.
In the case of `N#CN[C@H]1C[C@@H](O)c2ccc(-c3ncnc4[nH]ccc34)cc21`, the half-life at 20 µM in [1] was found to be 0.467 h. The values for the half-life in data set [2] and in [3] were 0.333 h and 5.65 h, respectively. Further, the Papp A→B at […] in data set [4] was 2 ×10⁻⁶ cm/s.
Regarding `N=C(N[C@H]1CCc2ccc(-c3ncnc4[nH]ccc34)cc21)SC[C@H](N)C(=O)NCC(=O)O`, the Drug metabolism result in data set [6] is “Metabolite_Detected”.
In the case of `Cn1nccc1S(=O)(=O)N[C@@H]1C[C@H](NC#N)c2cc(-c3ncnc4[nH]ccc34)ccc21`, the half-life at 20 µM in data set [1] worked out at 0.367 h.
For the compound `N#CN[C@H]1C[C@@H](NS(=O)(=O)c2cccc(F)c2)c2ccc(-c3ncnc4[nH]ccc34)cc21`, in [1], the half-life at 20 µM came to 1.33 h. In data set [4], the Papp A→B at […] came out at 10 ×10⁻⁶ cm/s.
Turning to `C[C@]1(NC#N)CCc2ccc(-c3ncnc4[nH]ccc34)cc21`, in data set [1], the half-life at 20 µM is over 2 h. In addition, the half-life in data set [2] and in data set [3] was over 6 h in each case. For the same compound, the apparent permeability from apical to basolateral (Papp A→B) at […] in data set [4] is 19 ×10⁻⁶ cm/s.
With `N#CN[C@@H]1CCc2ccc(-c3ncnc4[nH]ccc34)cc21`, the half-life at 20 µM in data set [1] was found to be 1.35 h.
On to `N#CNC1CCc2ccc(-c3ncnc4[nH]ccc34)cc21` (stereo unspecified), for which, in data set [1], the half-life at 20 µM was 1.12 h.
`C1CCNCC1` [PIPERIDINE]: the half-life in data set [7] is 11.1 h.
For the compound `N#CNC1CCOc2ccc(-c3ncnc4[nH]ccc34)cc21` (stereo unspecified), in data set [1], the half-life at 20 µM turned out to be 0.6 h.
As to `N=C(N[C@H]1CCc2ccc(-c3ncnc4[nH]ccc34)cc21)SC[C@H](NC(=O)CC[C@H](N)C(=O)O)C(=O)NCC(=O)O`, the Drug metabolism result in [6] is on record as “Metabolite_Detected”.
On to `COCCc1c[nH]c2ncnc(-c3ccc4c(c3)C(NC#N)CCO4)c12` (stereo unspecified), for which the half-life at 20 µM in data set [1] came to 1.17 h.
For the compound `N#CN[C@H]1C[C@H](O)c2ccc(-c3ncnc4[nH]ccc34)cc21`, the half-life at 20 µM in data set [1] worked out at 0.667 h.
On the same count and under the same terms, for `CN(C#N)C1CCc2ccc(-c3ncnc4[nH]ccc34)cc21` (stereo unspecified) the value was over 3.17 h.
